Assay results from ChEMBL document CHEMBL1201862, “PubChem BioAssay data set” (2004).
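Interpolation was linear, between the two tested concentrations surrounding the appropriate level; five concentrations were tested over 48 hours in 96-well plates. GI50: concentration for 50% inhibition of growth.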 Activity calls are given as the source filed them. No stated cut-off is given here; in the data, active = GI50 up to about 1.1 µM and inactive = higher.

Key:
Test in all cases: NCI anticancer screen, dose series, 48 h
786-0 = system: 786-0
CAKI-1 = system: CAKI-1
DMS-273 = system: DMS-273
EKVX = system: EKVX
HT-29 = system: HT-29
Malme-3M = system: Malme-3M
NCI-H226 = system: NCI-H226
NCI-H23 = system: NCI-H23
NCI-H460 = system: NCI-H460
NCI-H522 = system: NCI-H522
RXF 393 = system: RXF 393
SF-539 = system: SF-539
SK-MEL-28 = system: SK-MEL-28
SN12C = system: SN12C
A498 = system: A498
IGROV-1 = system: IGROV-1
UACC-62 = system: UACC-62
RPMI-8226 = system: RPMI-8226
Hs-578T = system: Hs-578T
MDA-MB-231 = system: MDA-MB-231

| Structure (SMILES) | GI50 (786-0) | GI50 (CAKI-1) | GI50 (DMS-273) | GI50 (EKVX) | GI50 (HT-29) | GI50 (Malme-3M) | GI50 (NCI-H226) | GI50 (NCI-H23) | GI50 (NCI-H460) | GI50 (NCI-H522) | GI50 (RXF 393) | GI50 (SF-539) | GI50 (SK-MEL-28) | GI50 (SN12C) | GI50 (A498) | GI50 (IGROV-1) | GI50 (UACC-62) | GI50 (RPMI-8226) | GI50 (Hs-578T) | GI50 (MDA-MB-231) |
| --- | --- | --- | --- | --- | --- | --- | --- | --- | --- | --- | --- | --- | --- | --- | --- | --- | --- | --- | --- | --- |
| CC1=C(O)/C(=C/C(C)CCC/C(C)=C/C=C/C(C)CCCc2ccoc2)OC1=O (configuration not stated) | 25.5 µM (inactive) | 45.5 µM (inactive) | 55.3 µM (inactive) | 25 µM (inactive) | 45.4 µM (inactive) | 10.1 µM (inactive) | 23.2 µM (inactive) | 23.7 µM (inactive) | 30.3 µM (inactive) | 37.2 µM (inactive) | 24.7 µM (inactive) | 30.3 µM (inactive) | 25 µM (inactive) | 35.3 µM (inactive) |  |  |  |  |  |  |
| Oc1ncnc2c1sc(=S)n2-c1ccccc1 | > 100 µM (inactive) | > 100 µM (inactive) | > 100 µM (inactive) | > 100 µM (inactive) | > 100 µM (inactive) | > 100 µM (inactive) | > 100 µM (inactive) | > 100 µM (inactive) | > 100 µM (inactive) | > 100 µM (inactive) |  | > 100 µM (inactive) | > 100 µM (inactive) | > 100 µM (inactive) | 94.8 µM (inactive) | > 100 µM (inactive) | > 100 µM (inactive) |  |  |  |
| C[N+](C)(C)CC1CCCC(C[N+](C)(C)C)C1=NO (configuration not stated) | > 100 µM (inactive) | > 100 µM (inactive) | > 100 µM (inactive) | > 100 µM (inactive) | > 100 µM (inactive) | > 100 µM (inactive) | > 100 µM (inactive) | > 100 µM (inactive) | > 100 µM (inactive) |  | > 100 µM (inactive) | > 100 µM (inactive) | > 100 µM (inactive) | > 100 µM (inactive) |  | > 100 µM (inactive) | > 100 µM (inactive) | > 100 µM (inactive) |  |  |
| O=C1c2cc([N+](=O)[O-])sc2C(=O)c2ccsc21 | 0.449 µM (active) | 1.24 µM (inactive) |  | 1.08 µM (active) | 0.665 µM (active) | 0.164 µM (active) | 1.36 µM (inactive) | 0.352 µM (active) | 0.306 µM (active) | 0.195 µM (active) | 0.486 µM (active) | 0.365 µM (active) | 0.283 µM (active) | 0.327 µM (active) | 2.14 µM (inactive) | 0.413 µM (active) | 0.204 µM (active) | 0.206 µM (active) | 0.618 µM (active) | 0.266 µM (active) |
| CC(C)(C)[C@H]1CCC2(OCCO2)[C@](O)(CCCO)C1 | > 100 µM (inactive) | > 100 µM (inactive) |  | > 100 µM (inactive) | > 100 µM (inactive) | > 100 µM (inactive) | > 100 µM (inactive) | > 100 µM (inactive) | > 100 µM (inactive) | > 100 µM (inactive) | > 100 µM (inactive) | > 100 µM (inactive) | > 100 µM (inactive) | > 100 µM (inactive) | > 100 µM (inactive) | > 100 µM (inactive) | > 100 µM (inactive) | > 100 µM (inactive) | > 100 µM (inactive) | > 100 µM (inactive) |
| CN1N(c2ccccc2)C(=O)C2=NC=C(C(=O)c3ccccc3)C(=N)C21C (configuration not stated) | > 100 µM (inactive) | > 100 µM (inactive) |  | > 100 µM (inactive) | > 100 µM (inactive) | > 100 µM (inactive) | > 100 µM (inactive) | > 100 µM (inactive) | > 100 µM (inactive) | > 100 µM (inactive) | > 100 µM (inactive) | > 100 µM (inactive) | > 100 µM (inactive) | > 100 µM (inactive) | > 100 µM (inactive) | > 100 µM (inactive) | > 100 µM (inactive) | > 100 µM (inactive) | > 100 µM (inactive) | > 100 µM (inactive) |
| CCCNc1ncnc2c1cnn2C | > 100 µM (inactive) | > 100 µM (inactive) | > 100 µM (inactive) |  | > 100 µM (inactive) | > 100 µM (inactive) | > 100 µM (inactive) | > 100 µM (inactive) | > 100 µM (inactive) | > 100 µM (inactive) |  | > 100 µM (inactive) | > 100 µM (inactive) | > 100 µM (inactive) | > 100 µM (inactive) | > 100 µM (inactive) | > 100 µM (inactive) | > 100 µM (inactive) |  |  |
| CCn1c(SC(C)C(=O)c2c(C)n(C)n(-c3ccccc3)c2=O)nc2ccccc2c1=O (configuration not stated) | > 100 µM (inactive) |  | > 100 µM (inactive) | 36.4 µM (inactive) | > 100 µM (inactive) | > 100 µM (inactive) | > 100 µM (inactive) | > 100 µM (inactive) | > 100 µM (inactive) | 84.1 µM (inactive) |  | > 100 µM (inactive) | > 100 µM (inactive) | > 100 µM (inactive) | > 100 µM (inactive) | > 100 µM (inactive) | > 100 µM (inactive) | 95.1 µM (inactive) |  |  |
| C=C1CCC2C(C)(CO)C(O)CCC2(C)C1C/C=C1/CCOC1=O (configuration not stated) | > 100 µM (inactive) | > 100 µM (inactive) | > 100 µM (inactive) | > 100 µM (inactive) | > 100 µM (inactive) | > 100 µM (inactive) | > 100 µM (inactive) | > 100 µM (inactive) | > 100 µM (inactive) | 31.3 µM (inactive) |  | > 100 µM (inactive) |  | > 100 µM (inactive) | > 100 µM (inactive) | > 100 µM (inactive) | > 100 µM (inactive) | > 100 µM (inactive) |  |  |
| C/C(=N\NC(N)=S)C(CN1CCCCC1)C(C1=C(O)c2ccccc2OC1)c1ccccc1 (configuration not stated) | > 100 µM (inactive) | > 100 µM (inactive) |  | > 100 µM (inactive) | > 100 µM (inactive) | > 100 µM (inactive) | > 100 µM (inactive) | > 100 µM (inactive) | > 100 µM (inactive) | > 100 µM (inactive) | > 100 µM (inactive) | > 100 µM (inactive) | > 100 µM (inactive) | > 100 µM (inactive) | > 100 µM (inactive) | > 100 µM (inactive) | > 100 µM (inactive) | 35.2 µM (inactive) | > 100 µM (inactive) | > 100 µM (inactive) |
| Clc1nc(Cl)c(Cl)c(Cl)n1 | 19.7 µM (inactive) | 17.8 µM (inactive) |  | 32.1 µM (inactive) | 20.7 µM (inactive) | 16 µM (inactive) | 20.7 µM (inactive) | 18.5 µM (inactive) | 21.6 µM (inactive) | 15.9 µM (inactive) | 18.3 µM (inactive) | 23 µM (inactive) | 19.6 µM (inactive) | 20.6 µM (inactive) | 19.4 µM (inactive) | 19.9 µM (inactive) | 18.5 µM (inactive) | 43.3 µM (inactive) | 20.9 µM (inactive) | 18 µM (inactive) |
| COc1ccc2nc3c([N+](=O)[O-])ccc4c3c(c2c1)N(CCCN(C)C)C(=S)N4CCCN(C)C | 2.78 µM (inactive) | 14.5 µM (inactive) |  | 3.74 µM (inactive) | 2.22 µM (inactive) | 2.65 µM (inactive) | 7.48 µM (inactive) | 8.97 µM (inactive) | 2.7 µM (inactive) | 1.53 µM (inactive) | 9.53 µM (inactive) | 4 µM (inactive) | 18.1 µM (inactive) | 5.11 µM (inactive) | 17.7 µM (inactive) | 2.97 µM (inactive) | 16 µM (inactive) | 5.51 µM (inactive) | 7.94 µM (inactive) | 7.28 µM (inactive) |
| Cc1ccc(C2=Nc3ccccc3SC(c3cccc([N+](=O)[O-])c3)C2)cc1 (configuration not stated) | 6.3 µM (inactive) | 51.4 µM (inactive) |  | 49.7 µM (inactive) | 5.96 µM (inactive) | 26.7 µM (inactive) | > 100 µM (inactive) | 11.8 µM (inactive) | 27.9 µM (inactive) | 9.59 µM (inactive) | 16.4 µM (inactive) | 3.8 µM (inactive) | > 100 µM (inactive) | 34.1 µM (inactive) | > 100 µM (inactive) | 8.34 µM (inactive) | > 100 µM (inactive) | 2.38 µM (inactive) | 14.3 µM (inactive) | 40.6 µM (inactive) |
| O=C(c1ccccc1)c1ccc2c(c1)nc1n2C(c2c(F)cccc2F)SC1 (configuration not stated) | 27.4 µM (inactive) | 21.1 µM (inactive) |  | 11.5 µM (inactive) | 13 µM (inactive) | 31.2 µM (inactive) | 34.8 µM (inactive) | 28.8 µM (inactive) | 17.1 µM (inactive) | 34.7 µM (inactive) | 29 µM (inactive) | 28.6 µM (inactive) | 32.1 µM (inactive) | 18.7 µM (inactive) | 19.5 µM (inactive) | 52.4 µM (inactive) | 15.5 µM (inactive) | 30.3 µM (inactive) | 59 µM (inactive) | 41.9 µM (inactive) |
| Nc1c(-c2cccc3ccccc23)c2ccc([N+](=O)[O-])cc2c(=O)n1-c1nc2ccccc2s1 | 5.64 µM (inactive) | 5.15 µM (inactive) |  | 1.94 µM (inactive) | 5.02 µM (inactive) | 3.58 µM (inactive) | 2.41 µM (inactive) | 2.11 µM (inactive) | 3.1 µM (inactive) | 2.22 µM (inactive) | 6.04 µM (inactive) | 2.2 µM (inactive) | 14.1 µM (inactive) | 6.27 µM (inactive) | 7.66 µM (inactive) | 3.41 µM (inactive) | 5.6 µM (inactive) | 1.02 µM (active) | 2.98 µM (inactive) | 5.37 µM (inactive) |
| Cn1cnnc1Sc1c([N+](=O)[O-])nc(-c2ccc([N+](=O)[O-])cc2)n1C | 17.7 µM (inactive) | 32.7 µM (inactive) | 17.4 µM (inactive) | 27.5 µM (inactive) | 18.4 µM (inactive) | 14.9 µM (inactive) | 20.9 µM (inactive) | 18.2 µM (inactive) | 36.1 µM (inactive) | 6.1 µM (inactive) |  | 16.7 µM (inactive) | 16 µM (inactive) | 16.1 µM (inactive) | > 100 µM (inactive) | 17.5 µM (inactive) | 16.5 µM (inactive) | 16.1 µM (inactive) |  |  |
